From patent publication US20200113852A1, “METHODS OF PATIENT SELECTION AND TREATING TRXR- OR PRDX-OVEREXPRESSED CANCERS” (TRIACT THERAPEUTICS, INC., priority 2017, published 2020)

How the values were obtained:
[1] = test system: TrxR in MDA-MB-231 cells; test: Endogenous TrxR activity (DTNB reduction assay); format: cell-based, human; settings: GSH-depleted MDA-MB-231; iniparib 100 μM, Auranofin 1 μM, up to 4 h
Description: Initial velocities were derived from linear regression analyses and then plotted in double reciprocal plots to obtain the half time of TrxR inhibition using an one phase exponential decay analysis (Prism, GraphPad software).

[2] = test system: metastatic triple negative breast cancer; test: Phase 2 and Phase 3 mTNBC trials, 15-gene expression signature analysis (PFS, OS, ORR); format: in vivo, human
Description: Formalin-fixed, paraffin-embedded (FFPE) archival samples from biopsy or surgery at original diagnosis of breast cancer were profiled on the exon-based Affymetrix Hugene1.0ST microarrays using an RNA extraction protocol adapted to the short fragment lengths resulting from RNA degradation in FFPE samples. It was considered that a corpus of n=210 patients for whom clinical outcome data was available in the form of PFS time and associated censoring statuses.
The raw gene expression data from profiling of an initial n=240 FFPE preserved samples, in the form of individual Affymetrix CEL files, was processed using […] estimation. Quality control based on average array brightness excluded 30 outlier scans, and the n=210 remaining profiles were then normalized to each other using quantile normalization. Affymetrix probesets were mapped to genes, in a manner where multiple probesets mapping into the same gene were resolved by assigning the highest intensity to the corresponding gene, this procedure reducing the set of 33,297 probe sets to 20,756 mapped genes. The data was then log 2-transformed, and standardized by mean-subtraction and division by the standard deviation across all 210 samples, for each gene separately. Finally, the data matrix was subsetted to the intersection of the oxidative response set of 102 genes with the set of genes represented on the Hugene1.0ST arrays, resulting in profiles for p=82 genes across all n=210 samples.
A multivariate Cox model using supervised principal components was used to model progression free survival times regressed on gene expression data. […]
In Eq.(1) the variables: x1, l=1, . . . , K, denote projections onto the first K principal components of the data matrix of gene expression vectors, after preliminary reduction to a subset of mtop genes out of the original set of 82, where mtop is a variable parameter, 1≤mtop≤82. For a given mtop, the subset is determined by univariate feature selection (generating a Cox model for each gene independently and selecting the mtop genes with the smallest interaction-term P-values). […]

[3] = test system: newly diagnosed glioblastoma multiforme (GBM); test: Phase II clinical trial GBM, overall survival; format: in vivo, human
Description: For assessing the efficacy of the treatment in terms of overall survival, the overall failure rate were estimated and compared to the failure rate of 0.6 per-person year of follow-up regarding the Phase III trial done by Stupp et al. in the same patient population treated with RT plus concomitant and adjuvant temozolomide.
The primary endpoint was death due to all causes. The survival time is defined from time of histological diagnosis to death occurrence. The overall failure rate was expressed as hazard of failure per person-year of follow-up. The total patient population for this part of the study was defined as all patients who have met the eligibility criteria, not met ineligibility criteria, and signed patient informed consent.
It yield above 90% power to detect a 30% reduction in hazard rate with observed hazard ratio of 0.7 (0.42 vs. 0.6) at an alpha level of 0.1 to be significant. The overall failure rate was estimated by dividing the number of events (deaths) by the total exposure time in the study cohort along with 95% confidence intervals. Survival probability and median time of survival was calculated using Kaplan-Meier method.

[4] = test system: HCT116 cells; test: Fluorescence microscopy, subcellular localization of Iniparib-biotin targets; format: cell-based, human; settings: HCT116, 30 min after adding Iniparib-biotin
Protocol: (§1) HCT116 cells were platted on polylysine D coated thin glass bottom microscope chambers (Ibidi). […] For subcellular localization experiments mitochondria were stained with 100 nM Mitotracker Red CMX (Molecular probes) added for 10 min. This stain was performed before fixation (Paraformaldehyde 3.7% in PBS pH 7.4). Biotin was developed, after Triton X100 (0.3% in PBS, 15 min) permeabilization and saturation (1% BSA+1% gelatin in PBS: saturation buffer), with Alexa-488 streptavidin (Molecular Probes) conjugate (1 μg/ml in saturation buffer). Nuclei were stained with Hoechst (Molecular Probes) and samples mounted in anti-fading solution (Ibidi).
(§2) Cells were imaged with a PLAN NeoFluar 40× (NA 1.3) or 100×, (NA 1.46) oil objectives on a LSM510 (Zeiss) confocal microscope. Laser lines, filters and dichroic mirrors were selected for maximal separation of the green (Ex./Em. 488/530 nm) and the red fluorescence (Ex./Em. 543/LP 585 nm). Nuclei were observed (Ex./Em. 405/460 nm). For co-localization stacks of images separated by 400 nm along z-axis were acquired. Post-capture processing was done using LSM510 software, and Photoshop (Adobe) was used to make linear adjustments to brightness and contrast.

[5] = test system: MDA-MB-231 cells; test: Fluorescence microscopy, subcellular localization of iniparib-biotin targets; format: cell-based, human; settings: MDA-MB-231, as early as 30 min following compound addition
Protocol: as §1, with “MDA-MB-231” for “HCT116”, “antifading” for “anti-fading”
as §2, with “stacks of confocal images were deconvoluted using the ImageJ software.” for “and Photoshop (Adobe) was used to make linear adjustments to brightness and contrast.”

## NC(=O)c1ccc(I)c([N+](=O)[O-])c1 [Iniparib, 4-iodo-3-nitrobenzamide]
[1]
  TrxR reductase activity: inhibition of the TrxR reductase activity
[2]; biomarker-selected (sensitive) population n=53
  median progression-free survival: 5.9 months
[2]; resistant group
  objective response rate (responders): 34%
[2]; sensitive group n=53
  objective response rate (responders): 48%
[3]; Phase 2, N = 76
  2 Year Survival: 42.1 % patients
  3 Year Survival: 23.7 % patients
[3]; single arm phase 2
  reduced HR versus Stupp et al 2005: ≥ 25%

## O=C(CCCC[C@@H]1SC[C@@H]2NC(=O)N[C@@H]21)NCCNC(=O)c1ccc(I)c([N+](=O)[O-])c1 [Iniparib-biotin, 4-iodo-3-nitro-N-(2-(5-((3 aS,4S,6aR)-2-oxohexahydro-1H-thieno[3,4-d]imidazol-4-yl)pentanamido)ethyl)benzamide]
[4]
  subcellular localization of labeled proteins: cellular proteins were labeled in the cytosol as well as in the nucleus and cytoplasmic structures
[5]
  protein modification, subcellular localization: covalently modified cytosolic and mitochondrial proteins were detected
